Experimental data: ChEMBL document CHEMBL4004838, “Design and synthesis of novel phenyl -1, 4-beta-carboline-hybrid molecules as potential anticancer agents” (Eur J Med Chem, 2017)

Assays:
Assay type in all cases: functional
HOP-62 = assay: Growth inhibition of human HOP62 cells assessed as cell growth at 1 uM incubated for 48 hrs by sulforhodamine B assay relative to control; settings: HOP-62, 48 h, read-out: Activity
A498 = assay: Growth inhibition of human A498 cells incubated for 48 hrs by sulforhodamine B assay; settings: A498, 48 h
RXF 393 = assay: Growth inhibition of human RXF393 cells assessed as cell growth at 1 uM incubated for 48 hrs by sulforhodamine B assay relative to control; settings: RXF 393, 48 h, read-out: Activity
LOX IMVI = assay: Growth inhibition of human LOXIMVI cells assessed as cell growth at 0.1 uM incubated for 48 hrs by sulforhodamine B assay relative to control; settings: read-out: Activity
OVCAR-5 = assay: Growth inhibition of human OVCAR5 cells assessed as cell growth at 0.1 uM incubated for 48 hrs by sulforhodamine B assay relative to control; settings: OVCAR-5, 48 h, read-out: Activity
SF-539 [1] = assay: Growth inhibition of human SF539 cells assessed as cell growth at 1 uM incubated for 48 hrs by sulforhodamine B assay relative to control; settings: SF-539, 48 h, read-out: Activity
HCT-116 [2] = assay: Growth inhibition of human HCT116 cells assessed as cell growth at 100 uM incubated for 48 hrs by sulforhodamine B assay relative to control; settings: HCT-116, 48 h, read-out: Activity
SK-MEL-2 = assay: Growth inhibition of human SK-MEL-2 cells assessed as cell growth at 100 uM incubated for 48 hrs by sulforhodamine B assay relative to control; settings: SK-MEL-2, 48 h, read-out: Activity
DU-145 = assay: Growth inhibition of human DU145 cells assessed as cell growth at 1 uM incubated for 48 hrs by sulforhodamine B assay relative to control; settings: DU-145, 48 h, read-out: Activity
MDA-MB-435 = assay: Growth inhibition of human MDA-MB-435 cells incubated for 48 hrs by sulforhodamine B assay; settings: MDA-MB-435, 48 h
HCT-116 [3] = assay: Growth inhibition of human HCT116 cells assessed as cell growth at 1 uM incubated for 48 hrs by sulforhodamine B assay relative to control; settings: HCT-116, 48 h, read-out: Activity
OVCAR-3 = assay: Growth inhibition of human OVCAR3 cells incubated for 48 hrs by sulforhodamine B assay; settings: OVCAR-3, 48 h
NCI-H23 = assay: Growth inhibition of human NCI-H23 cells assessed as cell growth at 100 uM incubated for 48 hrs by sulforhodamine B assay relative to control; settings: NCI-H23, 48 h, read-out: Activity
786-0 = assay: Growth inhibition of human 786-0 cells assessed as cell growth at 0.01 uM incubated for 48 hrs by sulforhodamine B assay relative to control; settings: 786-0, 48 h, read-out: Activity
SW-620 = assay: Growth inhibition of human SW620 cells incubated for 48 hrs by sulforhodamine B assay; settings: SW-620, 48 h
TK-10 = assay: Growth inhibition of human TK10 cells assessed as cell growth at 100 uM incubated for 48 hrs by sulforhodamine B assay relative to control; settings: TK-10, 48 h, read-out: Activity
K562 = assay: Growth inhibition of human K562 cells assessed as cell growth at 0.1 uM incubated for 48 hrs by sulforhodamine B assay relative to control; settings: K562, 48 h, read-out: Activity
COLO 205 = assay: Growth inhibition of human COLO205 cells assessed as cell growth at 0.1 uM incubated for 48 hrs by sulforhodamine B assay relative to control; settings: COLO 205, 48 h, read-out: Activity
SF-268 = assay: Growth inhibition of human SF268 cells incubated for 48 hrs by sulforhodamine B assay; settings: SF-268, 48 h
PC-3 = assay: Growth inhibition of human PC3 cells assessed as cell growth at 100 uM incubated for 48 hrs by sulforhodamine B assay relative to control; settings: PC-3, 48 h, read-out: Activity
MDA-MB-468 = assay: Growth inhibition of human MDA-MB-468 cells assessed as cell growth at 0.1 uM incubated for 48 hrs by sulforhodamine B assay relative to control; settings: MDA-MB-468, 48 h, read-out: Activity
SF-539 [4] = assay: Growth inhibition of human SF539 cells assessed as cell growth at 0.01 uM incubated for 48 hrs by sulforhodamine B assay relative to control; settings: SF-539, 48 h, read-out: Activity
U-251 = assay: Growth inhibition of human U251 cells assessed as cell growth at 0.01 uM incubated for 48 hrs by sulforhodamine B assay relative to control; settings: U-251, 48 h, read-out: Activity
NCI-H522 = assay: Growth inhibition of human NCI-H522 cells assessed as cell growth at 0.01 uM incubated for 48 hrs by sulforhodamine B assay relative to control; settings: NCI-H522, 48 h, read-out: Activity
SF-295 = assay: Growth inhibition of human SF295 cells assessed as cell growth at 0.01 uM incubated for 48 hrs by sulforhodamine B assay relative to control; settings: SF-295, 48 h, read-out: Activity
HCT-15 = assay: Growth inhibition of human HCT15 cells assessed as cell growth at 0.1 uM incubated for 48 hrs by sulforhodamine B assay relative to control; settings: HCT-15, 48 h, read-out: Activity
T47D = assay: Growth inhibition of human T47D cells assessed as cell growth at 100 uM incubated for 48 hrs by sulforhodamine B assay relative to control; settings: read-out: Activity
NCI-H322M = assay: Growth inhibition of human NCI-H322M cells assessed as cell growth at 100 uM incubated for 48 hrs by sulforhodamine B assay relative to control; settings: read-out: Activity
HL-60(TB) = assay: Growth inhibition of human HL-60(TB) cells assessed as cell growth at 100 uM incubated for 48 hrs by sulforhodamine B assay relative to control; settings: HL-60, 48 h, read-out: Activity
[5] = read-out: LC50 (the source's name)
[6] = read-out: pLC50 (the source's name) (converted)

Work on `c1ccc2c3c([nH]c2c1)C(c1ccc(C2NCCc4c2[nH]c2ccccc42)cc1)NCC3` (racemic) yielded a growth at 1 µM (HOP-62) of 68%, a GI50 (A498; read-out: GI50) of 1.64 µM and a CC50 (A498; [5]) of 36.9 µM. For the same compound, the TGI (A498; read-out: TGI) was 8.87 µM, the GI50 (A498; read-out: pGI50 (converted)) was 1.66 µM and the CC50 (A498; [6]) was 37.2 µM. The TGI (A498; read-out: pTGI (converted)) was 8.91 µM, the growth at 1 µM (RXF 393) was 69% and the growth at 0.1 µM (LOX IMVI) was 91%. For the same compound, the growth at 0.1 µM (OVCAR-5) was 93%, the growth at 1 µM (SF-539 [1]) was 88% and the growth at 100 µM (HCT-116 [2]) was 92%. The growth at 100 µM (SK-MEL-2) was 93%, the growth at 1 µM (DU-145) was 43% and the CC50 (MDA-MB-435; [5]) was 3.75 µM. The GI50 (MDA-MB-435; read-out: pGI50 (converted)) was 0.363 µM, the CC50 (MDA-MB-435; [6]) was 3.72 µM and the TGI (MDA-MB-435; read-out: pTGI (converted)) was 1.26 µM. For the same compound, the growth at 1 µM (HCT-116 [3]) was 81%, the GI50 (OVCAR-3; read-out: GI50) was 1.24 µM and the CC50 (OVCAR-3; [5]) was 5.43 µM. It also gave a TGI (OVCAR-3; read-out: TGI) of 2.6 µM, a GI50 (OVCAR-3; read-out: pGI50 (converted)) of 1.23 µM and a CC50 (OVCAR-3; [6]) of 5.5 µM. It also gave a TGI (OVCAR-3; read-out: pTGI (converted)) of 2.57 µM, a growth at 100 µM (NCI-H23) of 86% and a growth at 0.01 µM (786-0) of 96%. It also gave a GI50 (SW-620; read-out: GI50) of 1.85 µM, a CC50 (SW-620; [5]) of 6.39 µM and a TGI (SW-620; read-out: TGI) of 3.44 µM. For the same compound, the GI50 (SW-620; read-out: pGI50 (converted)) was 0.186 µM, the CC50 (SW-620; [6]) was 0.646 µM and the growth at 100 µM (TK-10) was -96%. The growth at 0.1 µM (K562) was 114%, the growth at 0.1 µM (COLO 205) was 94% and the GI50 (SF-268; read-out: GI50) was 1.12 µM. For the same compound, the CC50 (SF-268; [5]) was 5.89 µM, the TGI (SF-268; read-out: TGI) was 2.57 µM and the GI50 (SF-268; read-out: pGI50 (converted)) was 1.12 µM. It also gave a CC50 (SF-268; [6]) of 5.89 µM, a TGI (SF-268; read-out: pTGI (converted)) of 2.57 µM and a growth at 100 µM (PC-3) of -93%. It also gave a growth at 0.1 µM (MDA-MB-468) of 100%, a growth at 0.01 µM (SF-539 [4]) of 93% and a growth at 0.01 µM (U-251) of 98%. It also gave a growth at 0.01 µM (NCI-H522) of 104%, a growth at 0.01 µM (SF-295) of 90% and a growth at 0.1 µM (HCT-15) of 95%. The growth at 100 µM (T47D) was -72%, the growth at 100 µM (NCI-H322M) was 96% and the growth at 100 µM (HL-60(TB)) was 83%.
`c1ccc2[nH]c(-c3ccc(-c4nccc5c4[nH]c4ccccc45)cc3)nc2c1` was tested, and the growth at 1 µM (HOP-62) was 88%, the GI50 (A498; read-out: GI50) was 1.14 µM and the CC50 (A498; [5]) was 5.68 µM. The GI50 (A498; read-out: pGI50 (converted)) was 11.5 µM, the CC50 (A498; [6]) was 56.2 µM and the TGI (A498; read-out: pTGI (converted)) was 25.7 µM. It also gave a growth at 1 µM (RXF 393) of 104%, a growth at 0.1 µM (LOX IMVI) of 92% and a growth at 0.1 µM (OVCAR-5) of 90%. For the same compound, the growth at 1 µM (SF-539 [1]) was 98%, the growth at 100 µM (HCT-116 [2]) was 78% and the growth at 100 µM (SK-MEL-2) was 64%. It also gave a growth at 1 µM (DU-145) of 97%, a GI50 (MDA-MB-435; read-out: GI50) of 1.92 µM and a CC50 (MDA-MB-435; [5]) of 9.51 µM. For the same compound, the TGI (MDA-MB-435; read-out: TGI) was 4.27 µM, the GI50 (MDA-MB-435; read-out: pGI50 (converted)) was 1.91 µM and the CC50 (MDA-MB-435; [6]) was 9.55 µM. For the same compound, the TGI (MDA-MB-435; read-out: pTGI (converted)) was 4.27 µM, the growth at 1 µM (HCT-116 [3]) was 90% and the GI50 (OVCAR-3; read-out: GI50) was 1.8 µM. It also gave a CC50 (OVCAR-3; [5]) of 7.36 µM, a TGI (OVCAR-3; read-out: TGI) of 3.64 µM and a GI50 (OVCAR-3; read-out: pGI50 (converted)) of 1.82 µM. For the same compound, the CC50 (OVCAR-3; [6]) was 7.41 µM, the TGI (OVCAR-3; read-out: pTGI (converted)) was 3.63 µM and the growth at 100 µM (NCI-H23) was 54%. For the same compound, the growth at 0.01 µM (786-0) was 89%, the GI50 (SW-620; read-out: GI50) was 2.79 µM and the CC50 (SW-620; [5]) was > 1 µM. For the same compound, the TGI (SW-620; read-out: TGI) was 8.48 µM, the GI50 (SW-620; read-out: pGI50 (converted)) was 2.82 µM and the CC50 (SW-620; [6]) was > 100 µM. For the same compound, the TGI (SW-620; read-out: pTGI (converted)) was 8.51 µM, the growth at 100 µM (TK-10) was 85% and the growth at 0.1 µM (K562) was 108%. For the same compound, the growth at 0.1 µM (COLO 205) was 97%, the GI50 (SF-268; read-out: GI50) was 2.89 µM and the CC50 (SF-268; [5]) was 8.98 µM. For the same compound, the GI50 (SF-268; read-out: pGI50 (converted)) was 2.88 µM, the CC50 (SF-268; [6]) was 89.1 µM and the TGI (SF-268; read-out: pTGI (converted)) was 10.2 µM. For the same compound, the growth at 100 µM (PC-3) was 71%, the growth at 0.1 µM (MDA-MB-468) was 99% and the growth at 0.01 µM (SF-539 [4]) was 96%. For the same compound, the growth at 0.01 µM (U-251) was 101%, the growth at 0.01 µM (NCI-H522) was 91% and the growth at 0.01 µM (SF-295) was 90%. The growth at 0.1 µM (HCT-15) was 97%, the growth at 100 µM (T47D) was 53% and the growth at 100 µM (NCI-H322M) was 75%. The growth at 100 µM (HL-60(TB)) was 40%.
